Test system: Mycobacterium tuberculosis
Assay: Antitubercular activity against Mycobacterium tuberculosis H37Ra ATCC 25177 transformed with pSMT1 luciferase reporter plasmid reduction in bacterial multiplication incubated for 7 days by luminometric assay
Assay type: functional, organism-based
Conditions: H37Ra ATCC 25177, 168 h

Row | Structure (SMILES) | MIC [µM]
1 | CN(OC(=O)Nc1ccccc1)C(=O)CCCP(=O)(OCOC(=O)C(C)(C)C)OCOC(=O)C(C)(C)C | > 64
2 | CC(=O)ON(C)C(=O)CCCP(=O)(OCOC(=O)C(C)(C)C)OCOC(=O)C(C)(C)C | > 64
